The values that follow are results of earlier work, collected in patent publication US20050119246A1, “1H-pyrazolyl derivative compounds, for use in diseases associated with the 5-ht2c receptor” (Bayer Pharmaceuticals Corporation, priority 2001, published 2005).

For one data set, the target named is 5-HT2 receptors. To be noted: background statement.
The next data set has as its target T1, 5-HT2C receptor (Homo sapiens, UniProt P28335).
T1 sequence (P28335 33-458): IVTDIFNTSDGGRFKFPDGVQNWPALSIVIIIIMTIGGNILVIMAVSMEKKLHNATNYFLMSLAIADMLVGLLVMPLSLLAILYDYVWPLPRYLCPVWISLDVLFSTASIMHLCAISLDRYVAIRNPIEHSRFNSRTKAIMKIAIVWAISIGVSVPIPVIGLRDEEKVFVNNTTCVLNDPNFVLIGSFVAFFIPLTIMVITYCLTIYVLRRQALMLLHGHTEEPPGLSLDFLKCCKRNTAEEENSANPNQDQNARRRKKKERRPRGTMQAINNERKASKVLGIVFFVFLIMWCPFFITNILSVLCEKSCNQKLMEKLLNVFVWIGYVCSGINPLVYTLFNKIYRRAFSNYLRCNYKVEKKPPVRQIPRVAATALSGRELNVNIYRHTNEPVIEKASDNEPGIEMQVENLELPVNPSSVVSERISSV
The conditions noted are these: background statement; comparator receptors not named.

Take `Cc1nc2sccn2c(=O)c1CCN1CCC(=C(c2ccc(F)cc2)c2ccc(F)cc2)CC1` [ritanserin]: on 5-HT2 receptors, the “pKi for the 5-HT2 receptors” value was 8.9 and the “selectivity for the 5-HT2 receptors over 5-HT1 receptors” value is on record as 10,000 fold.
With `Cc1cc2c(cc1Cl)N(C(=O)Nc1ccc(Oc3cccnc3C)nc1)CC2` [SB-242084], at 5-HT2C receptor, the “selectivity of 5-HT2C receptor antagonist” value is given as “at least 100 fold”.
